Measured values published in PubChem BioAssay AID292 (DTP/NCI, 2004).
Several values for one entry are separate records, joined by “and”; a condition that tells them apart may be missing. Equal values may be shown once. Toxic doses and inconclusive results are not listed. How the source made its calls: active means survival T/C of 150% or more; inactive means T/C below 125% in these data.

Tested on: B6C3F1 mice, ip Sarcoma M5076, median survival T/C
Assay: NCI In Vivo Anticancer Drug Screen. Data for tumor model Sarcoma M5076 (intraperitoneal) in B6C3F1 mice
Conditions: endpoint: median survival time, higher = longer survival
Outline: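 Transplantable tumour in mice; compound-treated vs vehicle-treated groups. Read-out: survival. Value = treated/control ratio.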

[1] = dose: 100.0 mg/kg/injection, schedule: Q04DX004 (ip), vehicle: saline with Tween-80
[2] = dose: 200.0 mg/kg/injection, schedule: Q04DX004 (ip), vehicle: saline with Tween-80
[3] = dose: 400.0 mg/kg/injection, schedule: Q04DX004 (ip), vehicle: saline with Tween-80

Measured: T/C

C[C@@]1(CO)[C@H](O)CC[C@@]2(C)[C@H]1CC[C@H]1C[C@@H]3C[C@@]12CC[C@@]3(O)COC(=O)CN
inactive: dose: 7.2 mg/kg/injection, schedule: Q03HX027 (ip), vehicle: saline + alcohol 116 % of control | dose: 10.0 mg/kg/injection, schedule: Q03HX027 (ip), vehicle: saline + alcohol 121 % of control | dose: 12.0 mg/kg/injection, schedule: Q03HX027 (ip), vehicle: saline + alcohol 116 % of control | dose: 18.8 mg/kg/injection, schedule: Q04DX004 (ip), vehicle: saline + alcohol 109 % of control | dose: 37.5 mg/kg/injection, schedule: Q04DX004 (ip), vehicle: saline + alcohol 104 % of control | dose: 75.0 mg/kg/injection, schedule: Q04DX004 (ip), vehicle: saline + alcohol 102 % of control | dose: 120.0 mg/kg/injection, schedule: Q01DX009 (ip), vehicle: saline + alcohol 110 % of control
active: dose: 20.0 mg/kg/injection, schedule: Q03HX027 (ip), vehicle: saline + alcohol 157 % of control | dose: 55.6 mg/kg/injection, schedule: Q03HX027 (ip), vehicle: saline + alcohol 156 % of control

CC(/C=C/C1OC(=O)C=CC1C)=C\C(C)C/C=C/C(C)=C/C(CO)C(=O)C(C)C(O)C(C)C/C(C)=C/C(=O)O (configuration not stated)
active: dose: 500.0 micrograms/kg/injection, schedule: Q04DX004 (ip), vehicle: other 171 % of control | dose: 1000.0 micrograms/kg/injection, schedule: Q04DX004 (ip), vehicle: other 202 % of control | dose: 2000.0 micrograms/kg/injection, schedule: Q04DX004 (ip), vehicle: other 192 % of control
inactive: dose: 13.63 micrograms/kg/injection, schedule: Q04DX004 (ip), vehicle: other 100 % of control | dose: 27.25 micrograms/kg/injection, schedule: Q04DX004 (ip), vehicle: other 107 % of control | dose: 54.5 micrograms/kg/injection, schedule: Q04DX004 (ip), vehicle: other 109 % of control | dose: 109.0 micrograms/kg/injection, schedule: Q04DX004 (ip), vehicle: other 113 % of control

CC1OC2CC(O)C1(O)C1=C2C(O)=C(C(N)=O)C(=N)C1=O (configuration not stated)
inactive: dose: 1.25 mg/kg/injection, schedule: Q04DX004 (ip), vehicle: saline 108 % of control | dose: 2.5 mg/kg/injection, schedule: Q04DX004 (ip), vehicle: saline 101 % of control | dose: 5.0 mg/kg/injection, schedule: Q04DX004 (ip), vehicle: saline 100 % of control

COc1ccccc1N=C1SCC(=O)N1Cc1ccco1
inactive: dose: 50.0 mg/kg/injection, schedule: Q04DX004 (ip), vehicle: saline with Tween-80 110 % of control | [1] 122 % of control | [2] 101 % of control | [3] 98 % of control | dose: 800.0 mg/kg/injection, schedule: Q04DX004 (ip), vehicle: saline with Tween-80 102 % of control

O=NN(CCCl)C(=O)NCCCl
inactive: dose: 1.5 mg/kg/injection, schedule: Q04DX004 (ip), vehicle: saline + alcohol 116 % of control
active: dose: 6.0 mg/kg/injection, schedule: Q04DX004 (ip), vehicle: saline + alcohol 163 % of control and 164 % of control | dose: 12.0 mg/kg/injection, schedule: Q04DX004 (ip), vehicle: saline + alcohol 224 % of control and 292 % of control | dose: 24.0 mg/kg/injection, schedule: Q04DX004 (ip), vehicle: saline + alcohol 248 % of control and 292 % of control | dose: 48.0 mg/kg/injection, schedule: Q04DX004 (ip), vehicle: saline + alcohol 244 % of control

O=C([O][Bi]([c]1ccccc1)[c]1ccccc1)c1ccccc1
inactive: dose: 6.25 mg/kg/injection, schedule: Q04DX004 (ip), vehicle: Klucel (hydroxypropylcellulose) (HPC) 96 % of control | dose: 12.5 mg/kg/injection, schedule: Q04DX004 (ip), vehicle: Klucel (hydroxypropylcellulose) (HPC) 111 % of control | dose: 25.0 mg/kg/injection, schedule: Q04DX004 (ip), vehicle: Klucel (hydroxypropylcellulose) (HPC) 101 % of control | dose: 50.0 mg/kg/injection, schedule: Q04DX004 (ip), vehicle: Klucel (hydroxypropylcellulose) (HPC) 95 % of control | dose: 100.0 mg/kg/injection, schedule: Q04DX004 (ip), vehicle: Klucel (hydroxypropylcellulose) (HPC) 91 % of control

O=C(c1ncccc1O)N1CCCCC1
inactive: dose: 40.63 mg/kg/injection, schedule: Q04DX004 (ip), vehicle: distilled water + Tween-80 86 % of control | dose: 81.25 mg/kg/injection, schedule: Q04DX004 (ip), vehicle: distilled water + Tween-80 103 % of control | dose: 325.0 mg/kg/injection, schedule: Q04DX004 (ip), vehicle: distilled water + Tween-80 97 % of control | dose: 650.0 mg/kg/injection, schedule: Q04DX004 (ip), vehicle: distilled water + Tween-80 90 % of control

CN(C)N=Nc1ccc(C(N)=O)cc1
inactive: dose: 25.0 mg/kg/injection, schedule: Q04DX004 (ip), vehicle: saline with Tween-80 120 % of control and 121 % of control | [3] 109 % of control
active: [1] 151 % of control | [2] 163 % of control
